Measurements from US12459932B2, “KIF18A inhibitors” (AMGEN INC., priority 2018, dated 2025).

These compounds were tested against T1, Recombinant human KIF18A (1-467 His-tagged) (Homo sapiens, UniProt Q8NI77) (assay: KIF18A Enzyme Assay: microtubule-stimulated ATPase activity (ADP-Glo)). Details: 30 nM KIF18A, 30 μg/mL pig microtubules, ATP 75 μM (Km), ADP-Glo luminescence.
T1 construct: Recombinant human KIF18A (1-467 His-tagged) protein; His
Type: biochemical
Experimental: KIF18A Enzyme Assay: Microtubule-stimulated ATPase activity assay is used to measure KIF18A enzyme activity after treatment with compound. Compounds were 2-fold serially diluted in DMSO (Sigma Inc) over 22-point concentration range. […] The assay measures ADP formed from the ATPase reaction. […] Read luminescence using EnVision microplate reader with ultra-luminescence module (Perkin Elmer Inc). Concentration-response curve-fitting and IC50 determination was performed using Genedata Screener Software (Standard 15.0.1, Genedata Inc) with a four-parameter logistic regression fit model.

T1 sequence (Q8NI77 1-467): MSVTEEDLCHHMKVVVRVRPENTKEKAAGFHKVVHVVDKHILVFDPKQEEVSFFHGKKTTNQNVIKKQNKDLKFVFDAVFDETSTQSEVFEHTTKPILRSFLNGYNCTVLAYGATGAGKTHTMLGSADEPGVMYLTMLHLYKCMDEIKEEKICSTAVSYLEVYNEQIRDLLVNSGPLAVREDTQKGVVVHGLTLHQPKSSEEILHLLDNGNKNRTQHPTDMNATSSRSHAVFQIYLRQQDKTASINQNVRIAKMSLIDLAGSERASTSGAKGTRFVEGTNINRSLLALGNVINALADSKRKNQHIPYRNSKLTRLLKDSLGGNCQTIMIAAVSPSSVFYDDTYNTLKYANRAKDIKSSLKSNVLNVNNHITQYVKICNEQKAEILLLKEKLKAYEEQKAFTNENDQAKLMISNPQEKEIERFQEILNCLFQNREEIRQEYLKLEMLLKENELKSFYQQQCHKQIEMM
T1 sequence (P02550 whole entry partner): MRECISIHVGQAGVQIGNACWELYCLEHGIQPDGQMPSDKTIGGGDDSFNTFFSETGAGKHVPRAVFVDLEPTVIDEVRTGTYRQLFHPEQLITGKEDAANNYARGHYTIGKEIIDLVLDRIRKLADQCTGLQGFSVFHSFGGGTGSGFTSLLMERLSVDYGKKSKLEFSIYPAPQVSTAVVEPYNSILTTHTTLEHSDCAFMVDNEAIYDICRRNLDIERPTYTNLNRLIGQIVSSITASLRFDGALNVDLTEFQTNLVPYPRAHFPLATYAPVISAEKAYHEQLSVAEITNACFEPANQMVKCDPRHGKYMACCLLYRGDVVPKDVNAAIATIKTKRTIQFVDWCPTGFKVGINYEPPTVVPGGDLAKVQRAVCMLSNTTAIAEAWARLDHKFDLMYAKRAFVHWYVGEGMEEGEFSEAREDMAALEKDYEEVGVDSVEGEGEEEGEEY
T1 sequence (P02554 whole entry partner): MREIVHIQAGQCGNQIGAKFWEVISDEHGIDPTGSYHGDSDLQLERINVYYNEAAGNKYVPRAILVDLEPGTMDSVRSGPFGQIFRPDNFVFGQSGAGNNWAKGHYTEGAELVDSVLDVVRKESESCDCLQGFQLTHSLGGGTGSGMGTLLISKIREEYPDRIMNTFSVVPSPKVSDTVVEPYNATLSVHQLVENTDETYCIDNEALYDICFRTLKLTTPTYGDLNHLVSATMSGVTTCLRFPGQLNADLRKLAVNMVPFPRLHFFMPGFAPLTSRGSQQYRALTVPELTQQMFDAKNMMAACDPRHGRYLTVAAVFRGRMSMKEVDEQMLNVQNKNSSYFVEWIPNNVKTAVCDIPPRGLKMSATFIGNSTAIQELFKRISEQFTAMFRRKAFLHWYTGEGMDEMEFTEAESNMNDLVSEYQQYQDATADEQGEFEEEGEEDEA

Compound	IC50
CC1(NS(=O)(=O)c2ccc(C(=O)Nc3cccc(C(C)(C)O)n3)c(N3CCC4(CC3)CC4)c2)COC1 [Example 4-2, N-(6-(2-Hydroxypropan-2-yl)pyridin-2-yl)-4-(N-(3-methyloxetan-3-yl)sulfamoyl)-2-(6-azaspiro[2.5]octan-6-yl)benzamide]	80 nM
N=[S@@](=O)(c1ccc(C(=O)Nc2cccc(OCCC(F)(F)F)n2)c(N2CCC3(CC2)CC3)c1)C1CC1 (single isomer, unassigned) [Example 27-2, 2-(6-Azaspiro[2.5]octan-6-yl)-4-(R-cyclopropylsulfonimidoyl)-N-(6-(3,3,3-trifluoropropoxy)-2-pyridinyl)benzamide]	16 nM
C[C@@H](CO)S(=O)(=O)Nc1ccc(C(=O)Nc2cccc(N3CCC(F)(F)CC3)n2)c(N2CCC3(CC2)CC3)c1 (single isomer, unassigned) [Example 9-9]	41 nM
C[C@@H]1CN(c2nc(NC(=O)c3ccc(NS(=O)(=O)CCO)cc3N3CCC4(CC3)CC4)ccc2F)CCO1 [Example 24, (R)-N-(5-Fluoro-6-(2-methylmorpholino)pyridin-2-yl)-4-((2-hydroxyethyl)sulfonamido)-2-(6-azaspiro[2.5]octan-6-yl)benzamide]	33 nM
C[C@@H]1CN(c2cccc(NC(=O)c3ccc(NS(=O)(=O)C4(C)CC4)cc3N3CCC4(CC3)CC4)n2)CCO1 [Example 4-14, (R)-4-((1-Methylcyclopropane)-1-sulfonamido)-N-(6-(2-methylmorpholino)pyridin-2-yl)-2-(6-azaspiro[2.5]octan-6-yl)benzamide]	66 nM
Cc1cc(NC(=O)c2ccc(NS(=O)(=O)CCO)cc2N2CCC3(CC2)CC3)nc(OCCC(F)(F)F)c1 [Example 17, 4-((2-Hydroxyethyl)sulfonamido)-N-(4-methyl-6-(3,3,3-trifluoropropoxy)pyridin-2-yl)-2-(6-azaspiro[2.5]octan-6-yl)benzamide]	24 nM
N=S(=O)(c1ccc(C(=O)Nc2cccc(OCCC(F)(F)F)n2)c(N2CCC3(CC2)CC3)c1)C1CC1 (single isomer, unassigned) [Example 27-1, 2-(6-Azaspiro[2.5]octan-6-yl)-4-(S-cyclopropylsulfonimidoyl)-N-(6-(3,3,3-trifluoropropoxy)-2-pyridinyl)benzamide]	22 nM
C[C@@H]1CN(c2cccc(NC(=O)c3ccc(NS(=O)(=O)[C@H](C)CO)cc3N3CCC4(CC3)CC4)n2)CCO1 (single isomer, unassigned) [Example 9-15]	37 nM
Cc1cc(NC(=O)c2ccc(NS(=O)(=O)C3CCC3)cc2N2CCC3(CC2)CC3)nc(N2CC(F)(F)C2)c1 [Example 7-30, 4-(Cyclobutanesulfonamido)-N-(6-(3,3-difluoroazetidin-1-yl)-4-methylpyridin-2-yl)-2-(6-azaspiro[2.5]octan-6-yl)benzamide]	78 nM
CC1(S(=O)(=O)Nc2ccc(C(=O)Nc3cccc(N4CCC(C#N)CC4)n3)c(N3CCC4(CC3)CC4)c2)CC1 [Example 3-21, N-(6-(4-Cyanopiperidin-1-yl)pyridin-2-yl)-4-((1-methylcyclopropane)-1-sulfonamido)-2-(6-azaspiro[2.5]octan-6-yl)benzamide]	91 nM
C[C@H](CO)S(=O)(=O)Nc1ccc(C(=O)Nc2cccc(N3CC(F)(F)C3)n2)c(N2CCC3(CC2)CC3)c1 (single isomer, unassigned) [Example 9-3]	25 nM
Cc1cc(NC(=O)c2ccc(NS(=O)(=O)[C@H](C)CO)cc2N2CCC3(CC2)CC3)nc(N2CC(F)(F)C2)c1 (single isomer, unassigned) [Example 9-5]	17 nM
C[C@@H]1CN(c2cc(C#N)cc(NC(=O)c3ccc(NS(=O)(=O)CCO)cc3N3CCC4(CC3)CC4)n2)CCO1 [Example 25, (R)-N-(4-Cyano-6-(2-methylmorpholino)pyridin-2-yl)-4-((2-hydroxyethyl)sulfonamido)-2-(6-azaspiro[2.5]octan-6-yl)benzamide]	41 nM
Cc1cc(NC(=O)c2ccc(NS(=O)(=O)[C@H](C)CO)cc2N2CCC3(CC2)CC3)nc(N2CCO[C@H](C)C2)c1 (single isomer, unassigned) [Example 9-11]	38 nM
Cc1cc(NC(=O)c2ccc(NS(=O)(=O)C3(C)CC3)cc2N2CCC3(CC2)CC3)nc(C(C)(C)O)c1 [Example 4-17, N-(6-(2-Hydroxypropan-2-yl)-4-methylpyridin-2-yl)-4-((1-methylcyclopropane)-1-sulfonamido)-2-(6-azaspiro[2.5]octan-6-yl)benzamide]	163 nM
Cc1cc(NC(=O)c2ccc(NS(=O)(=O)CCO)cc2N2CCC3(CC2)CC3)nc(OCC(O)C(F)(F)F)c1 (centres unmarked) [Example 17-1, 4-((2-Hydroxyethyl)sulfonamido)-N-(4-methyl-6-(3,3,3-trifluoro-2-hydroxypropoxy)pyridin-2-yl)-2-(6-azaspiro[2.5]octan-6-yl)benzamide]	68 nM
C[C@@H]1CN(c2cccc(NC(=O)c3ccc(S(=O)(=O)NC4(C)COC4)cc3N3CCC4(CC3)CC4)n2)CCO1 [Example 4-11, (R)-N-(6-(2-Methylmorpholino)pyridin-2-yl)-4-(N-(3-methyloxetan-3-yl)sulfamoyl)-2-(6-azaspiro[2.5]octan-6-yl)benzamide]	43 nM
CC(O)CCOc1cccc(NC(=O)c2ccc(NS(=O)(=O)CCO)cc2N2CCC3(CC2)CC3)n1 (centres unmarked) [Example 16-7, N-(6-(3-Hydroxybutoxy)pyridin-2-yl)-4-((2-hydroxyethyl)sulfonamido)-2-(6-azaspiro[2.5]octan-6-yl)benzamide]	31 nM
CC1(S(=O)(=O)Nc2ccc(C(=O)Nc3cccc(N4CCC[C@H](CO)C4)n3)c(N3CCC4(CC3)CC4)c2)CC1 [Example 3-7, (S)-N-(6-(3-(Hydroxymethyl)piperidin-1-yl)pyridin-2-yl)-4-((1-methylcyclopropane)-1-sulfonamido)-2-(6-azaspiro[2.5]octan-6-yl)benzamide]	65 nM
CC1(COc2cccc(NC(=O)c3ccc(NS(=O)(=O)CCO)cc3N3CCC4(CC3)CC4)n2)COC1 [Example 16-2, 4-((2-Hydroxyethyl)sulfonamido)-N-(6-((3-methyloxetan-3-yl)methoxy)pyridin-2-yl)-2-(6-azaspiro[2.5]octan-6-yl)benzamide]	50 nM
C[C@@H]1CN(c2cccc(NC(=O)c3ccc(NS(=O)(=O)C4COC4)cc3N3CCC4(CC3)CC4)n2)CCO1 [Example 7-10, (R)-N-(6-(2-Methylmorpholino)pyridin-2-yl)-4-(oxetane-3-sulfonamido)-2-(6-azaspiro[2.5]octan-6-yl)benzamide]	63 nM
CC(C)(C)S(=N)(=O)c1cccc(NC(=O)c2ccc(NS(=O)(=O)CCO)cc2N2CCC3(CC2)CC3)n1 (centres unmarked) [Example 26, 4-((2-Hydroxyethyl)sulfonamido)-N-(6-(2-methylpropan-2-ylsulfonimidoyl)pyridin-2-yl)-2-(6-azaspiro[2.5]octan-6-yl)benzamide]	363 nM
Cc1cc(NC(=O)c2ccc(NS(=O)(=O)C3CC3)cc2N2CCC3(CC2)CC3)nc(N2CC(F)(F)C2)c1 [Example 7-34, 4-(Cyclopropanesulfonamido)-N-(6-(3,3-difluoroazetidin-1-yl)-4-methylpyridin-2-yl)-2-(6-azaspiro[2.5]octan-6-yl)benzamide]	41 nM
